Measured values reported in US20210309685A1, “AMINO ACID SALTS OF NICOTINIC ACID MONONUCLEOTIDE AND NICOTINAMIDE MONONUCLOETIDE AS ANTI-AGEING AGENTS” (Life Biosciences, Inc., priority 2018, published 2021).

These compounds were tested on COV434 cells (assay: NAD cell assay (NAD cycling method) in COV434 cells). Details: cellular NAD level, 200 uM, 4 hr, mole per mole versus parent NMN (NMN salts) or NaMN (NaMN salts), normalised to protein.
Type: cell-based
Description: NAD levels were assayed based on the NAD cycling method of Zhu and Rand, PLoS One (2012), herein incorporated by reference. COV434 cells were maintained in 6 well plates and treated with the indicated compounds at a concentration of 200 uM for 4 hr. Media was removed, plates were washed in cold PBS and cells were scraped down in NAD extraction buffer containing 10 mM nicotinamide, 50 mM Tris HCl, 0.1% Triton X-100. Cells were homogenised by sonication for 5 seconds, and samples were centrifuged at 7,000 g for 5 min at 4 degrees. Aliquots were taken for later protein assay, and samples were then passed through 10 kDa amicon filters at 14,000 g, 30 min at 4 degrees to remove proteins from the sample. Each sample was measured in technical triplicate, with 25 μL sample added to 100 μL ADH cycling mix (0.2 mg/ml alcohol dehydrogenase enzyme, 2% ethanol, 100 mM Tris pH 8.5). Samples were allowed to cycle for 10 min at room temperature, followed by 50 μL addition of an MTT/PMS solution (0.1 mM phenazine methosulfate, 0.8 mM 3-(4,5-Dimethylthiazol-2-yl)-2,5-diphenyltetrazolium bromide), 100 mM Tris-HCl pH 8.5). Plates were then incubated for 15 min and absorbance was measured at 570 nm. NAD concentrations were extrapolated from a standard curve, and normalised to protein concentrations determined by BCA protein assay.
The adjusted fold increase is obtained through a direct comparison on a mole per mole basis between the compared salt and its parent counterpart. In other words, the instant salts derived from NMN parent molecule will only have their NAD activity level measured against NMN based on the same amount (mole) of salt tested in the cell. Likewise those salts derived from NaMN will have their NAD cell activity measured against NaMN. For example, the fold increase of compound I-002 is based on the NAD activity observed in a direct comparison for the same amount of mole of I-002 tested in the cell and that of the NMN parent. Similarly, the fold increase of I-003 is based on the direct comparison with NaMN.

| Compound | FOLD increase adjusted for MW (compared to parent molecule) |
| --- | --- |
| O=C([O-])c1ccc[n+]([C@@H]2O[C@H](COP(=O)(O)O)[C@@H](O)[C@H]2O)c1 [Compound I-016, Bis((S)-1,3-Dicarboxypropan-1-aminium)-1-((2R,3R,4S,5R)-3,4-dihydroxy-5-((phosphonatooxy)methyl)tetrahydrofuran-2-yl)pyridin-1-ium-3-carboxylate] | 2.29 fold |
| NC(=O)c1ccc[n+]([C@@H]2O[C@H](COP(=O)([O-])O)[C@@H](O)[C@H]2O)c1 [Compound I-022, (S)-2-carboxypyrrolidin-1-ium ((2R,3S,4R,5R)-5-(3-carbamoylpyridin-1-ium-1-yl)-3,4-dihydroxytetrahydrofuran-2-yl)methyl phosphate] | 1.33 fold |
| O=C(O)c1ccc[n+]([C@@H]2O[C@H](COP(=O)([O-])O)[C@@H](O)[C@H]2O)c1 [Compound I-027, (S)-1-carboxy-3-(methylthio)propan-1-aminium 1-((2R,3R,4S,5R)-5-(((hydrogenphosphonato)oxy)methyl)-3,4-dihydroxytetrahydrofuran-2-yl)pyridin-1-ium-3-carboxylate] | 1.49 fold |
| NC(=O)c1ccc[n+]([C@@H]2O[C@H](COP(=O)([O-])O)[C@@H](O)[C@H]2O)c1 [Compound I-014, (S)-1-Carboxy-2-(1H-indol-3-yl)ethanaminium ((2R,3S,4R,5R)-5-(3-carbamoylpyridin-1-ium-1-yl)-3,4-dihydroxytetrahydrofuran-2-yl)methyl phosphate] | 1.51 fold |
| O=C([O-])c1ccc[n+]([C@@H]2O[C@H](COP(=O)(O)O)[C@@H](O)[C@H]2O)c1 [Compound I-004, Bis((S)-1-Carboxy-2-methylpropan-1-aminium)-1-((2R,3R,4S,5R)-3,4-dihydroxy-5-((phosphonatooxy)methyl)tetrahydrofuran-2-yl)pyridin-1-ium-3-carboxylate] | 1.99 fold |
| (S)-1-Carboxy-3-methylbutan-1-aminium 1-((2R,3R,4S,5R)-3,4-dihydroxy-5-((phosphonatooxy)methyl)tetrahydrofuran-2-yl)pyridin-1-ium-3-carboxylate [Compound I-058] | 1.81 fold |
| O=C([O-])c1ccc[n+]([C@@H]2O[C@H](COP(=O)(O)O)[C@@H](O)[C@H]2O)c1 [Compound I-017, Bis((S)-1-Carboxy-2-(1H-indol-3-yl)ethanaminium)-1-((2R,3R,4S,5R)-3,4-dihydroxy-5-((phosphonatooxy)methyl)tetrahydrofuran-2-yl)pyridin-1-ium-3-carboxylate] | 2.40 fold |
| O=C(O)c1ccc[n+]([C@@H]2O[C@H](COP(=O)([O-])O)[C@@H](O)[C@H]2O)c1 [Compound I-020, Bis((1S,2R)-1-carboxy-2-hydroxypropan-1-aminium)-1-((2R,3R,4S,5R)-3,4-dihydroxy-5-((phosphonatooxy)methyl)tetrahydrofuran-2-yl)pyridin-1-ium-3-carboxylate] | 1.52 fold |
| O=C([O-])c1ccc[n+]([C@@H]2O[C@H](COP(=O)(O)O)[C@@H](O)[C@H]2O)c1 [Compound I-008, Bis((S)-1-Carboxy-2-(1H-imidazol-4-yl)ethanaminium)-1-((2R,3R,4S,5R)-3,4-dihydroxy-5-((phosphonatooxy)methyl)tetrahydrofuran-2-yl)pyridin-1-ium-3-carboxylate] | 2.45 fold |
| O=C([O-])c1ccc[n+]([C@@H]2O[C@H](COP(=O)(O)O)[C@@H](O)[C@H]2O)c1 [Compound I-009, (S)-1-Carboxy-4-guanidinobutan-1-aminium 1-((2R,3R,4S,5R)-5-(((hydrogenphosphonato)oxy)methyl)-3,4-dihydroxytetrahydrofuran-2-yl)pyridin-1-ium-3-carboxylate] | 2.03 fold |
| O=C([O-])c1ccc[n+]([C@@H]2O[C@H](COP(=O)(O)O)[C@@H](O)[C@H]2O)c1 [Compound I-001, (S)-1-Carboxy-2-methylpropan-1-aminium 1-((2R,3R,4S,5R)-5-(((hydrogenphosphonato)oxy)methyl)-3,4-dihydroxytetrahydrofuran-2-yl)pyridin-1-ium-3-carboxylate] | 1.61 fold |
| (1S,2S)-1-Carboxy-2-methylbutan-1-aminium ((2R,3S,4R,5R)-5-(3-carbamoylpyridin-1-ium-1-yl)-3,4-dihydroxytetrahydrofuran-2-yl)methyl phosphate [Compound I-062] | 1.32 fold |
| NC(=O)c1ccc[n+]([C@@H]2O[C@H](COP(=O)([O-])O)[C@@H](O)[C@H]2O)c1 [Compound I-002, (S)-1-Carboxy-2-methylpropan-1-aminium ((2R, 3S, 4R, 5R)-5-(3-carbamoylpyridin-1-ium-1-yl)-3,4-dihydroxytetrahydrofuran-2-yl)methyl phosphate] | 1.24 fold |
| O=C([O-])c1ccc[n+]([C@@H]2O[C@H](COP(=O)(O)O)[C@@H](O)[C@H]2O)c1 [Compound I-026, Bis((S)-5-amino-5-carboxypentan-1-aminium)-1-((2R,3R,4S,5R)-3,4-dihydroxy-5-((phosphonatooxy)methyl)tetrahydrofuran-2-yl)pyridin-1-ium-3-carboxylate] | 2.47 fold |
| O=C([O-])c1ccc[n+]([C@@H]2O[C@H](COP(=O)(O)O)[C@@H](O)[C@H]2O)c1 [Compound I-006, (S)-1-Carboxy-2-(1H-imidazol-4-yl)ethanaminium 1-((2R,3R,4S,5R)-5-(((hydrogenphosphonato)oxy)methyl)-3,4-dihydroxytetrahydrofuran-2-yl)pyridin-1-ium-3-carboxylate] | 1.64 fold |
| O=C([O-])c1ccc[n+]([C@@H]2O[C@H](COP(=O)(O)O)[C@@H](O)[C@H]2O)c1 [Compound I-005, Bis((S)-4-Amino-1-carboxy-4-oxobutan-1-aminium)-1-((2R,3R,4S,5R)-3,4-dihydroxy-5-((phosphonatooxy)methyl)tetrahydrofuran-2-yl)pyridin-1-ium-3-carboxylate] | 3.05 fold |
| (S)-1-Carboxy-3-methylbutan-1-aminium ((2R,3S,4R,5R)-5-(3-carbamoylpyridin-1-ium-1-yl)-3,4-dihydroxytetrahydrofuran-2-yl)methyl phosphate [Compound I-059] | 1.80 fold |
| (R)-1-Carboxy-2-methylpropan-1-aminium 1-((2R,3R,4S,5R)-3,4-dihydroxy-5-((phosphonatooxy)methyl)tetrahydrofuran-2-yl)pyridin-1-ium-3-carboxylate [Compound I-065] | 1.54 fold |
| O=C([O-])c1ccc[n+]([C@@H]2O[C@H](COP(=O)(O)O)[C@@H](O)[C@H]2O)c1 [Compound I-011, (S)-1-Carboxy-2-(1H-indol-3-yl)ethanaminium 1-((2R,3R,4S,5R)-5-(((hydrogenphosphonato)oxy)methyl)-3,4-dihydroxytetrahydrofuran-2-yl)pyridin-1-ium-3-carboxylate] | 2.35 fold |
| O=C([O-])c1ccc[n+]([C@@H]2O[C@H](COP(=O)(O)O)[C@@H](O)[C@H]2O)c1 [Compound I-003, (S)-4-Amino-1-carboxy-4-oxobutan-1-aminium 1-((2R3R,4S,5R)-5-(((hydrogenphosphonato)oxy)methyl)-3,4-dihydroxytetrahydrofuran-2-yl)pyridin-1-ium-3-carboxylate] | 1.89 fold |
| O=C([O-])c1ccc[n+]([C@@H]2O[C@H](COP(=O)(O)O)[C@@H](O)[C@H]2O)c1 [Compound I-015, Bis((S)-1-Carboxy-4-guanidinobutan-1-aminium)-1-((2R,3R,4S,5R)-3,4-dihydroxy-5-((phosphonatooxy)methyl)tetrahydrofuran-2-yl)pyridin-1-ium-3-carboxylate] | 2.04 fold |
